Measurements from ChEMBL document CHEMBL3774354, “Discovery of Selective Histone Deacetylase 6 Inhibitors Using the Quinazoline as the Cap for the Treatment of Cancer” (J Med Chem, 2016).
Active and inactive are the calls of the source. The rule behind the calls is not given here.

Key:
[1] = test system: HeLa; assay: Induction of histone H3 acetylation in human HeLa cells incubated for 6 hrs by cytoblot assay; assay type: functional, cell-based
[2] = test system: HeLa; assay: Antiproliferative activity against human HeLa cells after 72 hrs by MTT assay; assay type: functional, cell-based
[3] = biological target: T1, Protein deacetylase HDAC6 (Homo sapiens, UniProt Q9UBN7); assay: Inhibition of HDAC6 in human HeLa cells assessed as induction of tubulin acetylation incubated for 6 hrs by cytoblot assay; assay type: cell-based
T1 sequence (Q9UBN7 whole entry): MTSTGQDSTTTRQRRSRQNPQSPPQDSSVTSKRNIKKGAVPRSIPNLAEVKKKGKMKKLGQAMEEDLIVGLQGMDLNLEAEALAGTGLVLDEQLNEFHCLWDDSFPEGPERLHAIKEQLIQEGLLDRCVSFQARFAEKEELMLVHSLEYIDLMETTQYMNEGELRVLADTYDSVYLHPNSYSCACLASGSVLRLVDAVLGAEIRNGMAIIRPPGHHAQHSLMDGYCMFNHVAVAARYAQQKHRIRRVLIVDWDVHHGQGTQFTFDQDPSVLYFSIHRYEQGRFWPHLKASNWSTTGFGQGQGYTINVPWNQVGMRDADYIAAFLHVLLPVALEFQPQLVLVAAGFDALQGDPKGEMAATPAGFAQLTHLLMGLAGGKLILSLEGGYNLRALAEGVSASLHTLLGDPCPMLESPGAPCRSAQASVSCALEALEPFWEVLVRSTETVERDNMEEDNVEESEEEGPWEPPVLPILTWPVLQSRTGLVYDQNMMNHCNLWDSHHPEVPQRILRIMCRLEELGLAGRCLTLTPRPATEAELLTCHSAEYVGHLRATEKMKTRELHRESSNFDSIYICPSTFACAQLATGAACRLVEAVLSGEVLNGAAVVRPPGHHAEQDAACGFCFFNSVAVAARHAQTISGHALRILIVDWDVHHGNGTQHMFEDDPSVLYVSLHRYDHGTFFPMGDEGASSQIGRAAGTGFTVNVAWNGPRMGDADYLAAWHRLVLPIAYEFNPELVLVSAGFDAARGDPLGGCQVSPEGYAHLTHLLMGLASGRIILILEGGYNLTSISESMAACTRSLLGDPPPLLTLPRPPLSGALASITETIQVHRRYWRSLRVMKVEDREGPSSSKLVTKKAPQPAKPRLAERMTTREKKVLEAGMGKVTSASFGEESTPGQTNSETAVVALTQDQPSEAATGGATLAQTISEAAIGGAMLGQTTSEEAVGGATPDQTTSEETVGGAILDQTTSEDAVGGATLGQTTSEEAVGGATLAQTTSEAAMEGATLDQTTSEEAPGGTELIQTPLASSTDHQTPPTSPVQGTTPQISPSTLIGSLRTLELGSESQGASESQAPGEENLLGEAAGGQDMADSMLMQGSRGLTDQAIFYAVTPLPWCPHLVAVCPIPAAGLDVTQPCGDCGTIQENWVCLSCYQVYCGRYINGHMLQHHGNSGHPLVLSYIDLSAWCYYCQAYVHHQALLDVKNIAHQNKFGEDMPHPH

[4] = test system: A-375; assay: Antiproliferative activity against human A375 cells after 72 hrs by MTT assay; assay type: functional, cell-based; conditions: A-375, 72 h
[5] = test system: Mus musculus; assay: Toxicity in Balb/c nude mouse xenografted with human HCT116 cells assessed as death at 50 mg/kg, ip q2d for 9 days; assay type: organism-based, HCT-116; conditions: in vivo, 216 h
[6] = test system: Mus musculus; assay: Toxicity in NOD/SCID mouse xenografted with human MV4-11 cells assessed as death at 50 mg/kg, ip q2d for 12 days; assay type: organism-based; conditions: in vivo, 288 h
[7] = test system: Mus musculus; assay: Toxicity in Balb/c nude mouse xenografted with human HCT116 cells assessed as change in body weight at 100 mg/kg, po q2d for 8 days; assay type: organism-based, HCT-116; conditions: in vivo, 192 h
[8] = Antitumor activity against human HCT116 cells xenografted in Balb/c nude mouse assessed as tumor mass change at 50 mg/kg, ip q2d for 9 days; assay type: functional, HCT-116
[9] = test system: Mus musculus; assay: Toxicity in Balb/c nude mouse xenografted with human HCT116 cells assessed as death at 100 mg/kg, po q2d for 8 days; assay type: organism-based, HCT-116; conditions: in vivo, 192 h
[10] = test system: Mus musculus; assay: Toxicity in Balb/c nude mouse xenografted with human HCT116 cells assessed as change in body weight at 50 mg/kg, ip q2d for 9 days; assay type: organism-based, HCT-116; conditions: in vivo, 216 h
[11] = test system: MV4-11; assay: Antitumor activity against human MV4-11 cells xenografted in NOD/SCID mouse assessed as tumor mass change at 50 mg/kg, ip q2d for 12 days; assay type: functional
[12] = Antitumor activity against human HCT116 cells xenografted in Balb/c nude mouse assessed as tumor mass change at 100 mg/kg, po q2d for 8 days; assay type: functional, HCT-116
[13] = biological target: T2, Histone deacetylase 8 (Homo sapiens, UniProt Q9BY41)
T2 sequence (Q9BY41 whole entry): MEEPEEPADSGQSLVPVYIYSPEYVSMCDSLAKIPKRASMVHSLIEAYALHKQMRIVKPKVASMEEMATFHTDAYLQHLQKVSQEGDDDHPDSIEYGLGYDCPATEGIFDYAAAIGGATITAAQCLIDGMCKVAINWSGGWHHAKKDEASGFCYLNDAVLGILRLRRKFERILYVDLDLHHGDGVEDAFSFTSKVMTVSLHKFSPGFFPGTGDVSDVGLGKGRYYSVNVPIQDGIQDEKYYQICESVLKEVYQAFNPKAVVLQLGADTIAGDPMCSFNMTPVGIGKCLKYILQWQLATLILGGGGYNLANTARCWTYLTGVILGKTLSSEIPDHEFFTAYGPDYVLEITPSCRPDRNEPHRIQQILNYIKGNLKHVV
Description: Inhibition of human recombinant HDAC8 using AMC labeled AC-peptide as substrate incubated for 1 hr by fluorescence analysis

[14] = biological target: T1, Protein deacetylase HDAC6
Description: Inhibition of human recombinant HDAC6 using AMC labeled AC-peptide as substrate incubated for 1 hr by fluorescence analysis

[15] = biological target: Histone deacetylase 1 (Homo sapiens, UniProt Q13547)
Chain of Histone deacetylase 1 (Q13547 whole entry): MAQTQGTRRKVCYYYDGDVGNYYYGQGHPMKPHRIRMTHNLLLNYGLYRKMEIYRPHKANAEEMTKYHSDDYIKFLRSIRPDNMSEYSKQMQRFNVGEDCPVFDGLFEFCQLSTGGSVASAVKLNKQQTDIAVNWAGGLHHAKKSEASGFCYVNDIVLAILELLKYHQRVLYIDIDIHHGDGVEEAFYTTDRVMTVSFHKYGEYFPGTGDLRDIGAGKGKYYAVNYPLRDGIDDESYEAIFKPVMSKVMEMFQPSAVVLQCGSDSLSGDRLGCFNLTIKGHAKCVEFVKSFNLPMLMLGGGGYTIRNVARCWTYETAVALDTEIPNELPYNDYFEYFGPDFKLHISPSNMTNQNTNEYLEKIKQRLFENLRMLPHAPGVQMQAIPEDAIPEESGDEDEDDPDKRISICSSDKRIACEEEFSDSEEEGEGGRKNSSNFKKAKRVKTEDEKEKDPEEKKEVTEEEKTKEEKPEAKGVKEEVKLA
Description: Inhibition of human recombinant HDAC1 using AMC labeled AC-peptide as substrate incubated for 1 hr by fluorescence analysis

[16] = biological target: T3, Protein deacetylase HDAC6 (Homo sapiens) (UniProt Q9UBN7); assay: Inhibition of HDAC6 in human MV4-11 cells assessed as upregulation of alpha- tubulin acetylation after 6 hrs by Western blot analysis; assay type: cell-based
T3 sequence (whole entry): T1 sequence (Q9UBN7 whole entry)

[17] = biological target: Histone deacetylase 1/2/3 (Homo sapiens) (UniProt Q13547+O15379+Q92769); conditions: MV4-11, 1000 nM
Description: Inhibition of HDAC1/2/3 in human MV4-11 cells assessed as upregulation of histone H3 acetylation at 1000 nM after 6 hrs by Western blot analysis

[18] = Cytotoxicity against human U266 cells after 72 hrs by MTT assay; assay type: functional, cell-based; conditions: U-266, 72 h
[19] = Cytotoxicity against human RPMI8226 cells after 72 hrs by MTT assay; assay type: functional, cell-based; conditions: RPMI-8226, 72 h
[20] = biological target: T3, Protein deacetylase HDAC6 (Homo sapiens); assay: Inhibition of HDAC6 in human HCT116 cells assessed as upregulation of alpha- tubulin acetylation after 6 hrs by Western blot analysis; assay type: cell-based; conditions: HCT-116
[21] = biological target: Histone deacetylase 11 (Homo sapiens) (UniProt Q96DB2); assay: Inhibition of recombinant HDAC11 (unknown origin) using AMC labeled AC-peptide as substrate at 10 uM incubated for 1 hr by fluorescence analysis
Chain of Histone deacetylase 11 (Homo sapiens) (Q96DB2 whole entry): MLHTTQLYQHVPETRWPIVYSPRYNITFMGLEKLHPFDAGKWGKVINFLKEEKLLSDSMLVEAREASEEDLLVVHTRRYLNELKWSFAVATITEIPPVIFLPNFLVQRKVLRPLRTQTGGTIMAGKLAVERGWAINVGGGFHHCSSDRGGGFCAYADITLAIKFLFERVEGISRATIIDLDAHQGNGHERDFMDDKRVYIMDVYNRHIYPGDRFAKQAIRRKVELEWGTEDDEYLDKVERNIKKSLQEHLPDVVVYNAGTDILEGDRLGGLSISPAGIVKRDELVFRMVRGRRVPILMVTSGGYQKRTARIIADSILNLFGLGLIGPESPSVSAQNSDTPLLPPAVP

[22] = biological target: Histone deacetylase 7 (Homo sapiens) (UniProt Q8WUI4); assay: Inhibition of recombinant HDAC7 (unknown origin) using AMC labeled AC-peptide as substrate at 10 uM incubated for 1 hr by fluorescence analysis
Chain of Histone deacetylase 7 (Homo sapiens) (Q8WUI4 whole entry): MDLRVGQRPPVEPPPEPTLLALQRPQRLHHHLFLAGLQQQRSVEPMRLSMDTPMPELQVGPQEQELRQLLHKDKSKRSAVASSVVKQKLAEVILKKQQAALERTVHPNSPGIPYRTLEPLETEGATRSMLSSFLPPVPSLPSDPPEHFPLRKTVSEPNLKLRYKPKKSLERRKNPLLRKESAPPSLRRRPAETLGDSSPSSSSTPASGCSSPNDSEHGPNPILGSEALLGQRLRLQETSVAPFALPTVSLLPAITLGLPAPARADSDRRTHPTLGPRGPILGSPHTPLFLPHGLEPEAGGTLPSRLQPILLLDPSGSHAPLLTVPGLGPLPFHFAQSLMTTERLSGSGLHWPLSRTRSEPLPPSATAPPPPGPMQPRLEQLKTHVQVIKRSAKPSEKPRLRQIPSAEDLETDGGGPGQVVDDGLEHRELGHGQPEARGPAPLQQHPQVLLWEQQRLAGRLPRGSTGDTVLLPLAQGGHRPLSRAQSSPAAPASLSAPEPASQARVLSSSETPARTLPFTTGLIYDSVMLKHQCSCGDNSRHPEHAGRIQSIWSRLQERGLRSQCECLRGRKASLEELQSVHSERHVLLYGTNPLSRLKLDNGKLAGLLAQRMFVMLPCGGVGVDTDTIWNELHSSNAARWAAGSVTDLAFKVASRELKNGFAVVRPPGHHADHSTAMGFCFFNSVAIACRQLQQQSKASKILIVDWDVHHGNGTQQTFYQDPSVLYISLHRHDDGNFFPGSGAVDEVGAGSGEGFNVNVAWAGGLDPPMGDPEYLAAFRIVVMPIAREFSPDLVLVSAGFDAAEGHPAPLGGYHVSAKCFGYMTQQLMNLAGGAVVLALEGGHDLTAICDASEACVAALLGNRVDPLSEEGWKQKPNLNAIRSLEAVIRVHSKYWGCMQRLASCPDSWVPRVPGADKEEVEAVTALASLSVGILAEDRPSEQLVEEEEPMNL

[23] = test system: A549; assay: Cytotoxicity against human A549 cells after 72 hrs by MTT assay; assay type: functional, cell-based; conditions: A549, 72 h
[24] = Cytotoxicity against human SKOV3 cells after 72 hrs by MTT assay; assay type: functional, cell-based; conditions: SK-OV-3, 72 h
[25] = test system: Mus musculus; assay: Toxicity in NOD/SCID mouse xenografted with human Ramos cells assessed as death at 40 mg/kg, po q2d for 6 days; assay type: organism-based; conditions: in vivo, 144 h
[26] = Cytotoxicity against human HCT116 cells after 72 hrs by MTT assay; assay type: functional, cell-based; conditions: HCT-116, 72 h
[27] = Cytotoxicity against human SKBR3 cells after 72 hrs by MTT assay; assay type: functional, cell-based; conditions: SK-BR-3, 72 h
[28] = test system: MV4-11; assay: Cytotoxicity against human MV4-11 cells after 72 hrs by MTT assay; assay type: functional, cell-based; conditions: MV4-11, 72 h
[29] = Cytotoxicity against human H460 cells after 72 hrs by MTT assay; assay type: functional, cell-based; conditions: NCI-H460, 72 h
[30] = test system: HT-29; assay: Cytotoxicity against human HT-29 cells after 72 hrs by MTT assay; assay type: functional, cell-based; conditions: HT-29, 72 h
[31] = test system: K562; assay: Cytotoxicity against human K562 cells after 72 hrs by MTT assay; assay type: functional, cell-based; conditions: K562, 72 h
[32] = biological target: Histone deacetylase 9 (Homo sapiens, UniProt Q9UKV0); assay: Inhibition of recombinant HDAC9 (unknown origin) using AMC labeled AC-peptide as substrate at 10 uM incubated for 1 hr by fluorescence analysis
Chain of Histone deacetylase 9 (Q9UKV0 whole entry): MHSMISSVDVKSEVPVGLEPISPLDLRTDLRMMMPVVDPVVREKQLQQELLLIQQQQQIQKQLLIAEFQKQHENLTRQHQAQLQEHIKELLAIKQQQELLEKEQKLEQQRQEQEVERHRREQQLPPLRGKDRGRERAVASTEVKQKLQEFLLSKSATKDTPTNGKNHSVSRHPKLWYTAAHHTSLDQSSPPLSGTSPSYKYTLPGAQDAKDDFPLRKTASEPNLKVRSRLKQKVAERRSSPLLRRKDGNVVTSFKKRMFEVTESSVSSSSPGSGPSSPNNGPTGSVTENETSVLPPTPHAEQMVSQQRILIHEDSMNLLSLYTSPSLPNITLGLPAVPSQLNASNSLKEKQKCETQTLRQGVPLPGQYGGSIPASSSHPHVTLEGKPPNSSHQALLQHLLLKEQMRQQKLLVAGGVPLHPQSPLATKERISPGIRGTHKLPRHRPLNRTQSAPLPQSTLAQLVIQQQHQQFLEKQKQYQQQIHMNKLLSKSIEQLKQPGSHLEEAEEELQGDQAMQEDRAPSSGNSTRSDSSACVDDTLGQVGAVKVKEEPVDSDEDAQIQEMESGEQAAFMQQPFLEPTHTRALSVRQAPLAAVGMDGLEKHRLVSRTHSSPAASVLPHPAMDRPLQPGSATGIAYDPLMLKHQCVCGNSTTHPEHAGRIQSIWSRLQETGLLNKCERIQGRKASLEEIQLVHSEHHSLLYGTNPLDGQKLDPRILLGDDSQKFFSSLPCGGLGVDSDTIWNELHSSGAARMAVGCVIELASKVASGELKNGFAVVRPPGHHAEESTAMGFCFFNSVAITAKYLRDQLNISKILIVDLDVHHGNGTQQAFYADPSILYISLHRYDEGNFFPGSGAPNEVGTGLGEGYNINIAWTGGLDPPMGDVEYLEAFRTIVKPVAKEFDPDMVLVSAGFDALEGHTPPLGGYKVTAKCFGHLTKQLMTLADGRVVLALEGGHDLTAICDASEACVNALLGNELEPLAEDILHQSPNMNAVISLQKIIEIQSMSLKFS

[33] = test system: A2780; assay: Cytotoxicity against human A2780 cells after 72 hrs by MTT assay; assay type: functional, cell-based; conditions: A2780, 72 h
[34] = biological target: Histone deacetylase 5 (Homo sapiens, UniProt Q9UQL6); assay: Inhibition of recombinant HDAC5 (unknown origin) using AMC labeled AC-peptide as substrate at 10 uM incubated for 1 hr by fluorescence analysis
Chain of Histone deacetylase 5 (Q9UQL6 whole entry): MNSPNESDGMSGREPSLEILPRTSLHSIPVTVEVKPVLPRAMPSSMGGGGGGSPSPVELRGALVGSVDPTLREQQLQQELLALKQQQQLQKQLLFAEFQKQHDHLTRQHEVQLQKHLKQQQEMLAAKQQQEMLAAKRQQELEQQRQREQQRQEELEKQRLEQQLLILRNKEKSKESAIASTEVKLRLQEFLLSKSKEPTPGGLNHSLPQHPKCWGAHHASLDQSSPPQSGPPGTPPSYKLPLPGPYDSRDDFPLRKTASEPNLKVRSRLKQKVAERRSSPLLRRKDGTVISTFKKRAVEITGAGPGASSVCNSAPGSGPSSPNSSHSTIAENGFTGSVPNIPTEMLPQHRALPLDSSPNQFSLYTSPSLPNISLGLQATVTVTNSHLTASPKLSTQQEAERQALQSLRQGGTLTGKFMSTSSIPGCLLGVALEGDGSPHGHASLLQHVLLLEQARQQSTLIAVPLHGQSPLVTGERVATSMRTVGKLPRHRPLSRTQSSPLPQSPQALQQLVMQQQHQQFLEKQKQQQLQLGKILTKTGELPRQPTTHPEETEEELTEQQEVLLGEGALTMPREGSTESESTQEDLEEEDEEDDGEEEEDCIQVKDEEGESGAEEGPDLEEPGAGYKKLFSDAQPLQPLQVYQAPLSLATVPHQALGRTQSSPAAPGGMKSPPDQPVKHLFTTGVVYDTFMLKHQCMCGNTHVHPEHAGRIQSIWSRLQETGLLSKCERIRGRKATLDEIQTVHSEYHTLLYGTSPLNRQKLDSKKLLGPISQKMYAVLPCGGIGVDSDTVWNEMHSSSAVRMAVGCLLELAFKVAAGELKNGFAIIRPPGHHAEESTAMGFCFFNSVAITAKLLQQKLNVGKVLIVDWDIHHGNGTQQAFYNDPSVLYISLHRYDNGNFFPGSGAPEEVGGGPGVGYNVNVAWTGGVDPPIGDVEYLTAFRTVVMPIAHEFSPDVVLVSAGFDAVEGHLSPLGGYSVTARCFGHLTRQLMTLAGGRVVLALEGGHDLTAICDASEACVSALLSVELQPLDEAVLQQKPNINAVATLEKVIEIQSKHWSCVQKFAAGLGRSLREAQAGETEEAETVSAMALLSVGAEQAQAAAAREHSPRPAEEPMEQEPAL

[35] = test system: HepG2; assay: Cytotoxicity against human HepG2 cells after 72 hrs by MTT assay; assay type: functional, cell-based; conditions: HepG2, 72 h
[36] = test system: Ramos; assay: Cytotoxicity against human Ramos cells after 72 hrs by MTT assay; assay type: functional, cell-based
[37] = test system: Ramos; assay: Antitumor activity against human Ramos cells xenografted in NOD/SCID mouse assessed as tumor mass change at 10 mg/kg, ip q2d for 6 days; assay type: functional
[38] = test system: Mus musculus; assay: Toxicity in NOD/SCID mouse xenografted with human Ramos cells assessed as change in body weight at 10 mg/kg, ip q2d for 6 days; conditions: in vivo, 144 h

Cc1nc(N(C)c2ccc(OCC(=O)NO)cc2)c2ccccc2n1
EC50 [1]: 456 nM
IC50 [2]: 171 nM
EC50 [3]: 26.2 nM
IC50 [4]: 213 nM

O=C(CCCCCCC(=O)Nc1ccccc1)NO [VORINOSTAT]
Activity [5]: Non-toxic
Activity [6]: Non-toxic
Activity [7]: -6.1%
Activity [8]: 36.6%
Activity [9]: Non-toxic
Activity [10]: -3%
Activity [11]: 0%
Activity [12]: 59.2%

Cc1nc2c(c(N(C)c3ccc(OCC(=O)NO)cc3)n1)CCC2
IC50 [13]: 2970 nM
IC50 [14]: 17 nM
EC50 [1]: 1770 nM
IC50 [2]: 2220 nM
IC50 [15]: 264 nM
EC50 [3]: 50.8 nM
IC50 [4]: 2850 nM

COc1ccc(N(C)c2nc(C)nc3ccccc23)cc1OCCCCC(=O)NO
IC50 [14]: 111 nM
IC50 [15]: 253 nM

O=C(CCCCCCNC(=O)c1cnc(N(c2ccccc2)c2ccccc2)nc1)NO [RICOLINOSTAT]
inhibition [16]: Dose-dependent effect
inhibition [17]: Active
IC50 [18]: > 5000 nM
IC50 [19]: 1470 nM
inhibition [20]: Dose-dependent effect
inhibition [21]: inactive
inhibition [22]: inactive
IC50 [23]: > 5000 nM
IC50 [24]: > 5000 nM
Activity [25]: Non-toxic
IC50 [2]: > 5000 nM
IC50 [26]: > 5000 nM
IC50 [27]: > 5000 nM
IC50 [28]: > 5000 nM
IC50 [29]: > 5000 nM
IC50 [30]: > 5000 nM
IC50 [31]: > 5000 nM
inhibition [32]: inactive
IC50 [33]: > 5000 nM
inhibition [34]: inactive
IC50 [35]: > 5000 nM
IC50 [36]: > 5000 nM

COc1ccc(Nc2nc(C)nc3ccccc23)cc1OCCCC(=O)NO
IC50 [13]: > 1000 nM
IC50 [14]: > 1000 nM
IC50 [15]: > 1000 nM

Cc1nc2c(c(N(C)c3ccc(OCCCCC(=O)NO)cc3)n1)CCC2
IC50 [13]: 1990 nM
IC50 [14]: 63 nM
IC50 [15]: 212 nM

Cc1nc(N(C)c2cccc(OCCCCC(=O)NO)c2)c2ccccc2n1
IC50 [13]: > 1000 nM
IC50 [14]: > 1000 nM
IC50 [15]: 306 nM

Cc1[nH]c2ccccc2c1CCNCc1ccc(/C=C/C(=O)NO)cc1 [PANOBINOSTAT]
Activity [37]: 16.6%
Activity [38]: -1.9%

COc1ccc(N(C)c2nc(C)nc3ccccc23)cc1OCCCCCC(=O)NO
IC50 [13]: 1530 nM
IC50 [14]: 23 nM
IC50 [15]: 160 nM

Cc1nc(N(C)c2ccc(OCCCCC(=O)NO)cc2)c2ccccc2n1
IC50 [15]: 204 nM

COc1ccc(N(C)c2nc(C)nc3ccccc23)cc1OCC(=O)NO
IC50 [13]: > 1000 nM
IC50 [14]: > 1000 nM
IC50 [15]: > 1000 nM

Cc1nc2c(c(N(C)c3ccc(OCCCCCC(=O)NO)cc3)n1)CCC2
IC50 [13]: 1000 nM
IC50 [14]: 20 nM
IC50 [15]: 120 nM

Cc1nc2c(c(N(C)c3ccc(OCCCC(=O)NO)cc3)n1)CCC2
IC50 [13]: 6190 nM
IC50 [14]: 40 nM
IC50 [15]: 195 nM

Cc1nc(N(C)c2cccc(OCCCCCC(=O)NO)c2)c2ccccc2n1
IC50 [13]: > 1000 nM
IC50 [14]: > 1000 nM
IC50 [15]: 73 nM

Cc1nc(N(C)c2cccc(OCC(=O)NO)c2)c2ccccc2n1
IC50 [13]: > 1000 nM
IC50 [14]: > 1000 nM
IC50 [15]: > 1000 nM

CN(c1ccc(OCC(=O)NO)cc1)c1ncnc2ccccc12
IC50 [13]: 1420 nM
IC50 [14]: 14 nM
EC50 [1]: 1260 nM
IC50 [2]: 379 nM
IC50 [15]: 242 nM
EC50 [3]: 49.4 nM
IC50 [4]: 432 nM

Cc1nc(N(C)c2cccc(OCCCC(=O)NO)c2)c2ccccc2n1
IC50 [13]: > 1000 nM
IC50 [14]: > 1000 nM
IC50 [15]: > 1000 nM
